In patent publication US20240309003A1, “HETEROCYCLIC COMPOUNDS AS TRIGGERING RECEPTOR EXPRESSED ON MYELOID CELLS 2 AGONISTS AND METHODS OF USE” (Vigil Neuroscience, Inc., priority 2021, published 2024):

Biological target: T1, human TREM2 (Homo sapiens, UniProt Q9NZC2)
T1 construct: expressed in transfected cells; host or cells: HEK293T
Assay: TREM2 agonist potency by cellular phosphorylation of Syk (AlphaLisa) in HEK293T-hTREM2 cells
Type: cell-based
Details: HEK293 cells expressing human TREM2 and DAP12, Table D
Experimental: In Vitro Measurement of Triggering Receptor Expressed on Myeloid Cells 2 Activity Using Cellular Phosphorylation of Spleen Tyrosine Kinase (“Syk”) Assays
Measurement of TREM2 agonist potency was done using a HEK cell line expressing human TREM2 and DAP12 (HEK293T-hTREM2 cells). Binding of small molecules to, and activation of, TREM2 increases the phosphorylation of Syk. The resultant levels of Syk phosphorylation are measured using a commercial AlphaLisa reagent kit. To perform the assay, HEK-hTREM2 cells were plated at 14,000 cells per well in a 384 well plate, in 25 μL of complete growth media and incubated at 37° C., 5% CO2 for 20-24 hours.
Prior to the assay, test compounds were diluted in the 384 well plates in assay buffer and allowed to equilibrate for 30 minutes. Growth media was removed from cell plates by inversion on blotting paper, and 25 μL of test articles in assay buffer was added to cells. Cells were incubated for 45 minutes at room temperature. After 45 minutes, assay buffer was removed and 10 μL of lysis buffer was added. Plates were shaken for 20 minutes at 350 RPM at room temperature. After complete lysis, AlphaLisa reagents were added to the lysate, and fluourescence intensity was measured using a Perkin Elmer Envision plate reader. Intensities were used to generate a standard curve, and % activation was calculated. Curve fitting was performed using Prism v9 software, log(agonist) vs response-variable slope (four parameters), and EC50s were calculated from the curve fit.
This assay may be used to test any of the compounds described herein to assess and characterize a compound's ability to act as an agonist of TREM2.

T1 sequence (Q9NZC2 19-230): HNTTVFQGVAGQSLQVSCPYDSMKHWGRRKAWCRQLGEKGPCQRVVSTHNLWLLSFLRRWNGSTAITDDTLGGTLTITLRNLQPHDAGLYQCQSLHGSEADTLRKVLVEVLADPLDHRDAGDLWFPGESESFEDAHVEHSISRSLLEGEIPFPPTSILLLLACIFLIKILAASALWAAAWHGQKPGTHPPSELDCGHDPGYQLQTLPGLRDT
T1 sequence (O43914 22-113 partner): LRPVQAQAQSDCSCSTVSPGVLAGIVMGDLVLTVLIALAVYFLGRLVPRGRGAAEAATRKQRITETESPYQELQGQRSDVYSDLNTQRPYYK

First: Cc1cnc2c(-c3ccc(F)cc3F)nc(N3C[C@@H](C)O[C@@H](c4cnn(C5CC5)c4)C3)cc2n1 [Example 209, (2S,6R)-2-(1-cyclopropyl-1H-pyrazol-4-yl)-4-(5-(2,4-difluorophenyl)-2-methylpyrido[3,4-b]pyrazin-7-yl)-6-methylmorpholine]
Second: CC(=O)OCc1nc2c(-c3ccc(F)cc3F)nc([C@@H]3CCO[C@@H](c4cnn(C5CC5)c4)C3)cc2nc1C [Example 246, (7-((2R,4R)-2-(1-cyclopropyl-1H-pyrazol-4-yl)tetrahydro-2H-pyran-4-yl)-5-(2,4-difluorophenyl)-2-methylpyrido[3,4-b]pyrazin-3-yl)methylacetate]
The EC50 of the first is lower: 50 to 500 nM for the first, 3000 to 100000 nM for the second.

COc1ccc([C@@H]2C[C@H](c3nc(C45CC(C(F)(F)F)(C4)C5)c4nc(C)c(C)nc4n3)CCO2)cn1 [Example 142, 2-((2S,4R)-2-(6-methoxypyridin-3-yl)tetrahydro-2H-pyran-4-yl)-6,7-dimethyl-4-(3-(trifluoromethyl)bicyclo[1.1.1]pentan-1-yl)pteridine] and COc1ccc(-c2nc([C@H]3CCO[C@@H](c4cnn(C5CC5)c4)C3)nc3nc(C)c(C)nc23)cn1 [Example 239, 2-((2R,4S)-2-(1-cyclopropyl-1H-pyrazol-4-yl)tetrahydro-2H-pyran-4-yl)-4-(6-methoxypyridin-3-yl)-6,7-dimethylpteridine] fall in the same range of EC50: 50 to 500 nM for the first, 50 to 500 nM for the second.

Compared with Cc1nc2nc([C@@H]3CCO[C@H](c4cnn(C5CC5)c4)C3)nc(-c3cc(F)c(F)cc3F)c2nc1C [Example 152, 2-((2S,4R)-2-(1-cyclopropyl-1H-pyrazol-4-yl)tetrahydro-2H-pyran-4-yl)-6,7-dimethyl-4-(2,4,5-trifluorophenyl)pteridine], [2H]C1([2H])C[C@H](c2nc(-c3ccc(F)cc3F)c3nc(C)c(C)nc3n2)C[C@H](c2cnn(C3CC3)c2)O1 [Example 171, 2-((2R,4S)-2-(1-cyclopropyl-1H-pyrazol-4-yl)tetrahydro-2H-pyran-4-yl-6,6-d2)-4-(2,4-difluorophenyl)-6,7-dimethylpteridine] is lower in EC50: 500 to 3000 nM for the first, 50 to 500 nM for the second. The second is the more potent here.

Cc1cnc2c(C34CC(C)(C3)C4)nc([C@H]3C[C@@H](C)O[C@@H](c4cnn(C5CC5)c4)C3)nc2n1 [Example 151, 2-((2R,4S,6R)-2-(1-cyclopropyl-1H-pyrazol-4-yl)-6-methyltetrahydro-2H-pyran-4-yl)-7-methyl-4-(3-methylbicyclo[1.1.1]pentan-1-yl)pteridine] and Cc1nc2nc([C@H]3CCO[C@@H](c4cnn(C5CC5)c4)C3)nc(C3C[C@@H](F)[C@@H](F)C3)c2nc1C (stereo partly drawn) [Example 245, 2-((2R,4S)-2-(1-cyclopropyl-1H-pyrazol-4-yl)tetrahydro-2H-pyran-4-yl)-4-((3R,4S)-3,4-difluorocyclopentyl)-6,7-dimethylpteridine] fall in the same range of EC50: 500 to 3000 nM for the first, 500 to 3000 nM for the second.

First: Cc1nc2nc(N3CCN(C)C(c4cnn(C5CC5)c4)C3)nc(-c3ccc(Cl)cc3F)c2nc1C (stereo not drawn) [Example 205, 4-(4-chloro-2-fluorophenyl)-2-(3-(1-cyclopropyl-1H-pyrazol-4-yl)-4-methylpiperazin-1-yl)-6,7-dimethylpteridine]
Second: Cc1nc2nc(N3CCN(C)[C@@H](c4cnn(C5CC5)c4)C3)nc(-c3ccc(Cl)cc3F)c2nc1C [Example 206, (S)-4-(4-chloro-2-fluorophenyl)-2-(3-(1-cyclopropyl-1H-pyrazol-4-yl)-4-methylpiperazin-1-yl)-6,7-dimethylpteridine]
The EC50 of the first is lower: under 50 nM for the first, 50 to 500 nM for the second.

[2H]C([2H])([2H])c1nc2nc([C@H]3CCO[C@@H](c4cnn(C5CC5)c4)C3)nc(-c3ccc(Cl)cc3F)c2nc1C([2H])([2H])[2H] [Example 181, 4-(4-chloro-2-fluorophenyl)-2-((2R,4S)-2-(1-cyclopropyl-1H-pyrazol-4-yl)tetrahydro-2H-pyran-4-yl)-6,7-bis(methyl-d3)pteridine] and [2H]C1(n2cc([C@H]3C[C@@H](c4nc(-c5ccc(Cl)cc5F)c5nc(C)c(C)nc5n4)CCO3)cn2)CC1 [Example 179, 4-(4-chloro-2-fluorophenyl)-2-((2R,4S)-2-(1-(cyclopropyl-1-d)-1H-pyrazol-4-yl)tetrahydro-2H-pyran-4-yl)-6,7-dimethylpteridine] cannot be ordered by EC50: under 50 nM for the first, under 50 nM for the second.

First: Cc1cc([C@@H]2C[C@H](c3nc(-c4cc(F)c(Cl)c(F)c4)c4nc(C)c(C)nc4n3)CCO2)ccn1 [Example 132, 4-(4-chloro-3,5-difluorophenyl)-6,7-dimethyl-2-((2S,4R)-2-(2-methylpyridin-4-yl)tetrahydro-2H-pyran-4-yl)pteridine]
Second: Cc1nc2nc(C3CCOC(c4cn[nH]c4)C3)nc(-c3ccc(F)cc3F)c2nc1C (stereo not drawn) [Example 167, 2-(2-(1H-pyrazol-4-yl)tetrahydro-2H-pyran-4-yl)-4-(2,4-difluorophenyl)-6,7-dimethylpteridine]
The EC50 of the first is higher: 3000 to 100000 nM for the first, 50 to 500 nM for the second.

Cc1nc2nc(N3C[C@@H](C)O[C@@H](c4cnn(C5CC5)c4)C3)nc(-c3ccnn3C)c2nc1C [Example 241, (2S,6R)-2-(1-cyclopropyl-1H-pyrazol-4-yl)-4-(6,7-dimethyl-4-(1-methyl-1H-pyrazol-5-yl)pteridin-2-yl)-6-methylmorpholine] and Cc1nc2nc(N3CCO[C@H](c4cc[nH]c(=O)c4)C3)nc(-c3ccc(C(F)(F)F)nc3)c2nc1C [Example 196, (R)-4-(4-(6,7-dimethyl-4-(6-(trifluoromethyl)pyridin-3-yl)pteridin-2-yl)morpholin-2-yl)pyridin-2(1H)-one] fall in the same range of EC50: 50 to 500 nM for the first, 50 to 500 nM for the second.

Cc1ccc2c(-c3ccc(Cl)c(F)c3F)nc([C@H]3CCO[C@@H](c4cnn(C5CC5)c4)C3)nc2n1 [Example 218, 4-(4-chloro-2,3-difluorophenyl)-2-((2R,4S)-2-(1-cyclopropyl-1H-pyrazol-4-yl)tetrahydro-2H-pyran-4-yl)-7-methylpyrido[2,3-d]pyrimidine] and Cc1nc2nc(N3CCOC(c4cc[nH]c(=O)c4)C3)nc(C34CC(C(F)(F)F)(C3)C4)c2nc1C (stereo not drawn) [Example 197, 4-(4-(6,7-dimethyl-4-(3-(trifluoromethyl)bicyclo[1.1.1]pentan-1-yl)pteridin-2-yl)morpholin-2-yl)pyridin-2(1H)-one] cannot be ordered by EC50: under 50 nM for the first, under 50 nM for the second.

Same assay, conditions: HEK293 cells expressing human TREM2 and DAP12, Table D-2

First: Cc1nc2nc(N3C[C@@H](C)O[C@@H](c4cnn(C5CC5)c4)C3)nc(-c3cc(F)c(C(F)(F)F)cc3F)c2nc1C [Example I-1538, (2S,6R)-2-(1-cyclopropylpyrazol-4-yl)-4-[4-[2,5-difluoro-4-(trifluoromethyl)phenyl]-6,7-dimethyl-pteridin-2-yl]-6-methyl-morpholine]
Second: Cc1nc2nc(N3C[C@@H](CO)O[C@@H](c4cnn(C5CC5)c4)C3)nc(-c3ccc(F)cc3F)c2nc1C [Example I-1333, [(2S,6S)-6-(1-cyclopropylpyrazol-4-yl)-4-[4-(2,4-difluorophenyl)-6,7-dimethyl-pteridin-2-yl]morpholin-2-yl]methanol]
The EC50 of the first is lower: under 50 nM for the first, 50 to 500 nM for the second. The first is the more potent here.

Compared with Cc1nc2nc([C@H]3CCO[C@@H](c4cnn(C5CC5)c4)C3)nc(-c3ccc(OC(F)(F)F)cc3F)c2nc1C [Example I-1313, 2-((2R,4S)-2-(1-cyclopropyl-1H-pyrazol-4-yl)tetrahydro-2H-pyran-4-yl)-4-(2-fluoro-4-(trifluoromethoxy)phenyl)-6,7-dimethylpteridine], Cc1nc2nc([C@H]3CCO[C@@H](c4cnn(C5CC5)c4)C3)nc(-c3ccc(F)cc3F)c2nc1C(F)F [Example I-1323, 2-[(2R,4S)-2-(1-cyclopropylpyrazol-4-yl)tetrahydropyran-4-yl]-6-(difluoromethyl)-4-(2,4-difluorophenyl)-7-methyl-pteridine] is lower in EC50: 50 to 500 nM for the first, under 50 nM for the second.

Compared with Cc1cc(N2C[C@@H](c3nc(-c4ccc(F)cc4F)c4nc(C)c(C)nc4n3)CCC2=O)ccn1 [Example I-1513], Cc1cc([C@@H]2CN(c3nc(-c4ccc(Cl)cc4F)c4nc(C)c(C)nc4n3)CCO2)on1 (stereo in doubt) [Example I-1241, 4-[4-(4-chloro-2-fluoro-phenyl)-6,7-dimethyl-pteridin-2-yl]-2-(3-methylisoxazol-5-yl)morpholine] is lower in EC50: 50 to 500 nM for the first, under 50 nM for the second. The second is the more potent here.

Cc1nc2nc(N3C[C@@H](C)O[C@@H](c4cnn(C5CC5)c4CO)C3)nc(-c3ccc(F)cc3F)c2nc1C [Example I-1462, [2-cyclopropyl-4-[(2S,6R)-4-[4-(2,4-difluorophenyl)-6,7-dimethyl-pteridin-2-yl]-6-methyl-morpholin-2-yl]pyrazol-3-yl]methanol] and CCc1nc2c(-c3ccc(F)cc3F)nc([C@H]3CCO[C@@H](c4cnn(C5CC5)c4)C3)cc2nc1C [Example I-1557, 7-((2R,4S)-2-(1-cyclopropyl-1H-pyrazol-4-yl)tetrahydro-2H-pyran-4-yl)-5-(2,4-difluorophenyl)-3-ethyl-2-methylpyrido[3,4-b]pyrazine] fall in the same range of EC50: 50 to 500 nM for the first, 50 to 500 nM for the second.

Work on Cc1nc2c(-c3ccc(Cl)cc3F)nc([C@H]3CCO[C@@H](c4cnn(C5CC5)c4)C3)nc2nc1CC(F)F [Example I-1477, 4-(4-chloro-2-fluoro-phenyl)-2-[(2R,4S)-2-(1-cyclopropylpyrazol-4-yl)tetrahydropyran-4-yl]-7-(2,2-difluoroethyl)-6-methyl-pteridine] yielded an EC50 of 50 to 500 nM.
